Data as given in patent US11103510B2, “JAK1 pathway inhibitors for the treatment of cytokine-related disorders” (Incyte Corporation, priority 2018, dated 2021).

How the values were obtained:
[1] = molecular target: human JAK1 (a.a. 837-1142) (Homo sapiens, UniProt P23458); assay: In vitro JAK kinase assay (HTRF), JAK1; assay type: biochemical; details: 1 mM ATP
Protocol: (§1) The catalytic activity of JAK1, JAK2 or JAK3 was assayed by measuring the phosphorylation of a biotinylated peptide. The phosphorylated peptide was detected by homogenous time resolved fluorescence (HTRF). […] Reactions are carried out at room temperature for 1 hour and then stopped with 20 μL 45 mM EDTA, 300 nM SA-APC, 6 nM Eu-Py20 in assay buffer (Perkin Elmer, Boston, Mass.). Binding to the Europium labeled antibody takes place for 40 minutes and HTRF signal was measured on a Fusion plate reader (Perkin Elmer, Boston, Mass.).

[2] = molecular target: human JAK2 (a.a. 828-1132) (Homo sapiens (Human), UniProt O60674); assay: In vitro JAK kinase assay (HTRF), JAK2, for JAK2/JAK1 ratio; assay type: biochemical; details: IC50 ratio, 1 mM ATP
Protocol: as §1

[3] = tested on: anti-CD3 antibody-induced cytokine release syndrome (CRS) in BALB/c mice; assay: Anti-CD3 antibody-induced cytokine release syndrome in BALB/c mice; assay type: in vivo; details: 60 and 120 mg/kg PO 1 h before anti-CD3 (10 μg IV); plasma 1.5 h after anti-CD3; FIG. 1
Text: JAK1 pathway inhibitors can be tested for efficacy against CRS according to an in vivo assay described in Ferran, C. et al. Clin. Exp. Immunol. 1991, 86, 537-543. Specifically, this study can test the ability of a compound to reduce or ameliorate anti-CD3 antibody-induced cytokine release syndrome (CRS) in BALB/c mice. The antibody, clone 145-2C11, is an immunoglobin G (IgG) hamster MoAb that is specific for the ε chain of the CD3 murine molecule (Léo, O. et al., Proc. Natl. Acad. Sci. USA, 1987, […], 1374). Treatment with 145-2C11 induces high affinity IL-2 receptors at the surface of spleen T-cells and results in a release of some cytokines such as tumor necrosis factor (TNF-α), IL-2, IL-3, IL-6, and interferon-gamma (IFN-γ) (Ferran, et al. Eur. J. Immunol. 1990, 20, 509-515 and Algre, M. et al., Eur. J. Immunol., 1990, 707). […]
The main objective of this study was to test the ability of a JAK1 pathway inhibitor (e.g., Compound 1) to reduce or ameliorate anti-CD3 antibody-induced cytokine release syndrome (CRS) in BALB/c mice. […] Animals were weighed prior to test article dosing, and monitored for the duration of the experiment. […]
After the administration of the anti-CD3 antibody, animals were closely monitored for signs of distress due to the resulting systemic inflammatory response. […]

[4] = tested on: Con A-induced cytokine release syndrome (CRS) in BALB/c mice; assay: Concanavalin A induced cytokine release syndrome in BALB/c mice; assay type: in vivo; details: plasma 2 h after Con A
Text: Concanavalin A (Con A) is a selective T lymphocyte mitogen resulting in broad inflammatory cytokine release and proliferation of CD4 and CD8 T-cells. Injection of Con-A has been shown in the literature to induce cytokine release syndrome and serves as a model with which to test the efficacy of cytokine release syndrome therapies (Gantner, F. at al. Hepatology, 1995, 21, 190-198). The mitogen response is dependent on expression of the T-cell receptor.
In particular, this study tests the ability of a selective JAK1 inhibitor (e.g., Compound 1, Table 1) to reduce or ameliorate Con A-induced cytokine release syndrome (CRS) in BALB/c mice. A total of forty (40) BALB/c mice were used for this one day study. Animals were weighed prior to test article dosing, and monitored for the duration of the experiment. On day 0, Sixty (60) minutes prior to Con A administration, vehicle (0.5% methylcellulose) or Compound 1 (60 and 120 mg/kg) was given in a single dose via oral gavage (PO) to animals in groups 2-4 as detailed in Table 2A. Group 1 served as naïve controls and were not treated. Following the […] pre-treatment with vehicle or Compound 1, animals in Groups 2-4 were administered 20 mg/kg of Con A via intravenous injection (IV) in order to induce CRS. All animals were euthanized via CO2 inhalation two hours after Con A administration. Whole blood was collected via cardiac puncture into K2EDTA tubes and stored on ice until plasma processing occurs. Plasma was collected and stored at −80° C. until cytokine multiplex was performed.
Animals were weighed and Con-A dose (20 mg/kg) calculated.
Vehicle and Compound 1 were prepared at corresponding doses.
On day 0, animals were dosed with vehicle or Compound 1, as in Table 2A. Group 1 served as the naïve controls and were not treated. Group 2 received a single dose of vehicle (0.5% methylcellulose) via PO at 0.1 mL/20 g. Group 3 received a single dose of 60 mg/kg Compound 1 via PO at 0.1 mL/20 g. Group 4 received a single dose of 120 mg/kg Compound 1 via PO at 0.1 mL/20 g.
Sixty (60) minutes after test article administration, Con-A was administered via IV injection to Groups 2-4. Each animal in Groups 2-4 received 20 mg/kg of Con-A in 0.2 mL.
After the administration of Con-A, animals were closely monitored for signs of distress due to the resulting systemic inflammatory response.
Two hours after Con-A administration all animals were euthanized by CO2 inhalation.
Upon sacrifice, whole blood was collected from each animal via cardiac puncture into K2EDTA tubes. The blood was centrifuged and the plasma collected in cryovials. The plasma was frozen and stored at −80° C. for the downstream cytokine multiplex assay.
Plasma samples are thawed on ice and used for a cytokine multiplex according to the manufacturer's protocol (ThermoFisher).
An unpaired one-way analysis of variance (ANOVA) incorporating Sidak's multiple test comparison was performed using GraphPad Prism (version 4.00; GraphPad Software, San Diego Calif., USA). A value of p<0.05 was considered significant.

Chain of human JAK2 (a.a. 828-1132) (O60674 828-1132): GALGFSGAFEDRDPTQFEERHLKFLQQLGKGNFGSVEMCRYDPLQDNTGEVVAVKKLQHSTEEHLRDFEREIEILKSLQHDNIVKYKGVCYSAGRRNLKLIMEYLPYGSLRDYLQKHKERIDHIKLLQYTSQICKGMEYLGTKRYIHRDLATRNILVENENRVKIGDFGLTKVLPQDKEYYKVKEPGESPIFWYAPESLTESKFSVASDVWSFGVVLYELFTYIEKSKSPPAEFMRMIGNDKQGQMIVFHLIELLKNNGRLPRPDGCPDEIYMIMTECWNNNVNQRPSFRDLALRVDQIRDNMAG

## N#CCC1(n2cc(-c3ncnc4[nH]ccc34)cn2)CN(C2CCN(C(=O)c3ccnc(C(F)(F)F)c3F)CC2)C1 [Compound 1, {1-{1-[3-Fluoro-2-(trifluoromethyl)isonicotinoyl]piperidin-4-yl}-3-[4-(7H-pyrrolo[2,3-d]pyrimidin-4-yl)-1H-pyrazol-1-yl]azetidin-3-yl}acetonitrile]
[1]
  IC50: < 10 nM
[2]
  JAK2/JAK1: >10
[3]
  IL-6 concentrations within the blood compartment: dose-dependently inhibited
[4]; 60 and 120 mg/kg PO 60 min before Con A (20 mg/kg IV), FIG. 2A
  IL-6 concentrations within the blood compartment: dose-dependently inhibited
[4]; 60 and 120 mg/kg PO before Con A, FIG. 2B
  IFNγ (T-cell derived cytokine): significantly inhibited
[4]; 60 and 120 mg/kg PO before Con A, FIG. 2C
  GM-CSF (T-cell derived cytokine): significantly inhibited
[4]; 60 and 120 mg/kg PO before Con A, FIG. 3A
  IL-12 (monocyte and/or macrophage derived cytokine): Statistically significant dose-dependent IL-12 reduction
[4]; 60 and 120 mg/kg PO before Con A, FIG. 3B
  IL-1β (monocyte and/or macrophage derived cytokine): trends for treatment effect
[4]; 60 and 120 mg/kg PO before Con A, FIG. 3C
  IL-18 (monocyte and/or macrophage derived cytokine): trends for treatment effect
[4]; 60 and 120 mg/kg PO before Con A, FIG. 4
  IL-5: unaffected
